{"source": "patent US9850271B2", "about": "“Crystalline solvate forms of a pharmaceutical” (NeurMedix, Inc., priority 2008, dated 2017)", "experiment": "Brief thermal stress of amorphous solid (physical stability)", "format": "physicochemical", "settings": "brief thermal stress at 40° C."}
{"smiles": "C#C[C@]1(O)CC[C@H]2[C@@H]3[C@@H](O)C=C4C[C@@H](O)CC[C@]4(C)[C@H]3CC[C@@]21C", "note": "[amorphous Compound 1, 17α-ethynyl-androst-5-ene-3β,7β,17β-triol]", "values": [{"measurement": "solid state form after brief thermal stress", "result": "resulted in crystalline material that contains Form I"}]}
